Measured values published in USRE40278E1, “Heterocyclic amines having central nervous system activity” (priority 1993, dated 2008).

Legend:
[1] = target: T1, 5-HT1DA-Clone (Homo sapiens, UniProt P28221); experiment: receptor binding assay, 5-HT1DA clone (5HT ligand)
T1 construct: expressed in transfected cells
Description: (§1) Compounds of Example 4 (Formula I where R1 and R2 are propyl, Y is hydrogen and X is —OCH3) were evaluated in an receptor binding assay (5HT Ligand) for calculation of IC50 values and Ki (nM) values. Receptor binding assays are well known tests for evaluating compounds for activity as described in “Cloning and Pharmacological Characterization of a Novel Human […] Receptor Sub-Type”, Mol. Pharm., 42 439-44 (1992), herein incorporated by reference.

[2] = target: T2, 5-HT1DB-Clone (Homo sapiens, UniProt P28222); experiment: receptor binding assay, 5-HT1DB clone (5HT ligand)
T2 construct: expressed in transfected cells
T2 sequence (P28222 whole entry): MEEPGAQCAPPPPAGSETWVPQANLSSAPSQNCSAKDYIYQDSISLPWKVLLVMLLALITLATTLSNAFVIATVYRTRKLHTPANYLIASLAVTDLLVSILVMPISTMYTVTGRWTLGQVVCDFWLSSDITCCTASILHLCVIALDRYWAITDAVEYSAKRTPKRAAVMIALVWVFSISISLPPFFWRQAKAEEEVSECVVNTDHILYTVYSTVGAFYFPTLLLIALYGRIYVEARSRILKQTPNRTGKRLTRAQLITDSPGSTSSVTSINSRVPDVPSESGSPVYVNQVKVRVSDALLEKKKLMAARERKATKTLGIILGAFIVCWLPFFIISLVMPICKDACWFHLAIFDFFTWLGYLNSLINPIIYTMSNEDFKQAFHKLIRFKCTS
Description: as §1

[3] = target: T3, 5-HT1A-Clone (Homo sapiens, UniProt P08908); experiment: receptor binding assay, 5-HT1A clone (DPAT ligand)
T3 construct: expressed in transfected cells
T3 sequence (P08908 1-422): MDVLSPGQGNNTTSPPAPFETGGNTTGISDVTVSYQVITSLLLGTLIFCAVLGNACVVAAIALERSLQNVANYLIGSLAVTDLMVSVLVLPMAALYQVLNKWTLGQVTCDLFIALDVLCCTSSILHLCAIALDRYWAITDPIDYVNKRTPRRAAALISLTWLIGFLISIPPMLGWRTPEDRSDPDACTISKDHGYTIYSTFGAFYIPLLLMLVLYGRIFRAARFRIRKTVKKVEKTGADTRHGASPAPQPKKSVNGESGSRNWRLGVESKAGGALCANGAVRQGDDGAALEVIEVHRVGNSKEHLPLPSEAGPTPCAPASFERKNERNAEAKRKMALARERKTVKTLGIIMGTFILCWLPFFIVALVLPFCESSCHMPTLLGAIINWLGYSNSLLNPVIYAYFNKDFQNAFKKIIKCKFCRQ
Description: as §1

[4] = test system: aggressive behavior of isolated male CF-1 mice; experiment: isolation-induced aggression assay (latency to attack an intruder mouse); type: in vivo; settings: isolated male CF-1 mice dosed p.o., intruder introduced thirty minutes later, n=6
Description: Compounds of the subject invention were evaluated in an isolation-induced aggression assay to measure their ability to control or arrest aggressive behavior as measured against a saline “Control”. Male CF-1 mice (Charles River Labs) were housed singly in wire cage drawers for several weeks of isolation and aggression training. After this, the isolated mouse (weighing 30-50 g) initiated an “attack” whenever an intruder mouse was placed into his cage. Intruders were male CF-1 Charles River mice, about the same size as isolated mice and housed in groups of 12 per cage. For drug testing, the isolated mice were dosed orally (p.o.) with drug or 0.25% methylcellulose vehicle. Thirty minutes later, an intruder mouse was introduced and the latency to attack was recorded. Treatment groups (n=6), including a positive control, were tested by an observer blinded to the treatments, and there was an additional non-blinded vehicle group.

T1 sequence (P28221 whole entry): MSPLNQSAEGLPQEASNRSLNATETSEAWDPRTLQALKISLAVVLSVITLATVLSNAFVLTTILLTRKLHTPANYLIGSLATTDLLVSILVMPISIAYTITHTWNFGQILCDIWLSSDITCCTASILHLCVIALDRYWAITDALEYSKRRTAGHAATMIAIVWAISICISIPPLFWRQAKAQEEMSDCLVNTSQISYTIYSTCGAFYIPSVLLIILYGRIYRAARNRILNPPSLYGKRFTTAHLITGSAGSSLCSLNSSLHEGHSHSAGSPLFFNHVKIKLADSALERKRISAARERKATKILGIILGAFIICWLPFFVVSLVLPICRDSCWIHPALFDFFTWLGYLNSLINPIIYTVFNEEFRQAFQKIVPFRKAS

SMILES	Ki [1] [nM]	Ki [2] [nM]	receptor selectivity (in words) ([2]; 5-HT1DB versus 5-HT1DA, conclusion from the Ki table)	Ki [3] [nM]	enantiomer that carries the activity (in words) ([3]; comparison of R- and S-enantiomer, conclusion from the Ki table)	latency to attack [4] [s]
CCCN(CCC)C1Cc2cccc3c2n(c(=O)n3OC)C1 (racemic) [Ex. 4 Racemate]	15.2	7.17	selective for the 5HT1DB receptor	–	–	–
CCCN(CCC)[C@@H]1Cc2cccc3c2n(c(=O)n3OC)C1 [Ex. 4 R-Enantiomer, (R)-5-Dipropylamino-1-methoxy-5,6-dihydro-4H-imidazo[4,5,1-ij]quinolin-2(1H)-one]	38	58	–	97	the activity resides in the R-enantiomer	–
CCCN(CCC)[C@H]1Cc2cccc3c2n(c(=O)n3OC)C1 [Ex. 4 S-Enantiomer]	–	–	–	904	–	–
CN[C@@H]1Cc2cccc3c2n(c(=O)n3OC)C1 [Example 1, (R)-5-Methylamino-1-methoxy-5,6-dihydro-4H-imidazo[4,5,1-ij]quinolin-2(1H)-one]	–	–	–	–	–	600
